For 30 compounds, IC50 results are on record in patent publication US10954232B2, “Pyrazole derivative as ALK5 inhibitor and uses thereof” (HANMI PHARMACEUTICAL CO., LTD., priority 2016, dated 2021).

Each structure is given as a SMILES string.

The target of the assay is T1, ALK5 kinase (Homo sapiens, UniProt P36897).
T1 construct: GST; purchased Thermo Fisher Scientific Solutions
T1 sequence (P36897 34-503): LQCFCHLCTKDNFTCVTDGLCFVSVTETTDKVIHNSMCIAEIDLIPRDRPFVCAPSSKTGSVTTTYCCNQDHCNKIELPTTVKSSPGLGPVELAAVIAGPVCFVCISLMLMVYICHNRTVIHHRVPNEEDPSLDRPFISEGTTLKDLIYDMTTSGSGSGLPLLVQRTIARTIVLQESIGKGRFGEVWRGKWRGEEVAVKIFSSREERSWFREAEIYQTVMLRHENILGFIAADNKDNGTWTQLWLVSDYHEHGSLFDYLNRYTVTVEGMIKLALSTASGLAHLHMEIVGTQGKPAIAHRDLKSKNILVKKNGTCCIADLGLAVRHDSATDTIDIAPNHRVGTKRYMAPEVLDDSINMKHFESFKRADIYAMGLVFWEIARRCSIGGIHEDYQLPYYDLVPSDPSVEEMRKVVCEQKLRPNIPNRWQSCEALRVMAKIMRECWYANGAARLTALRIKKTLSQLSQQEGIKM
Briefly: Activity inhibition test on ALK5 enzyme (LanthaScreen Eu binding kinase assay). The settings on record: kinase tracer 178, 60 minutes at room temperature. An outline of the steps: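 IC50 is the concentration giving 50% inhibition relative to control, taken from fluorescence after 60 min stirring at room temperature. Final mix held kinase 5 nM, Eu-GST binding antibody 2 nM and tracer 178 10 nM. Compounds were serially diluted from 1 μM to 0.0001 μM.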
In general terms: TR-FRET usually uses a lanthanide donor and a delayed reading to cut background.
With `Cc1cccc(-n2nc(C(=O)Nc3cnn(S(C)(=O)=O)c3)cc2-c2ccc3ncsc3c2)n1` [Example 80, 5-(benzo[d]thiazol-6-yl)-1-(6-methylpyridin-2-yl)-N-(1-(methylsulfonyl)-1H-pyrazol-4-yl)-1H-pyrazole-3-carboxyamide], the IC50 (as a rule, the concentration that inhibits the measured activity by half) is 1.3 nM. The compound `Cc1cccc(-n2nc(C(=O)Nc3ccc(CO)cc3)cc2-c2ccc3ncsc3c2)n1` [Example 85, 5-(benzo[d]thiazol-6-yl)-N-(4-(hydroxymethyl)phenyl)-1-(6-methylpyridin-2-yl)-1H-pyrazole-3-carboxyamide] returned an IC50 of 3.8 nM. With `COCCOc1ccc(NC(=O)c2cc(-c3ccc4ncsc4c3)n(-c3cccc(C)n3)n2)cc1` [Example 4, 5-(benzo[d]thiazol-6-yl)-N-(4-(2-methoxyethoxy)phenyl)-1-(6-methylpyridin-2-yl)-1H-pyrazole-3-carboxyamide] the figure was 4.4 nM; with `CC(=O)c1cccc(CNC(=O)c2cc(-c3ccc4nccnc4c3)n(-c3cccc(C)n3)n2)c1` [Example 195, N-(3-acetylbenzyl)-1-(6-methylpyridin-2-yl)-5-(quinoxalin-6-yl)-1H-pyrazole-3-carboxyamide], 10 to 100 nM; with `CNC(=O)c1ccc(NC(=O)c2cc(-c3ccc4ncsc4c3)n(-c3cccc(C)n3)n2)cc1` [Example 25, 5-(benzo[d]thiazol-6-yl)-N-(4-(methylcarbamoyl)phenyl)-1-(6-methylpyridin-2-yl)-1H-pyrazole-3-carboxyamide], < 10 nM. Consider `Cc1cccc(-n2nc(C(=O)Nc3ccc(N4CCOCC4)cc3)cc2-c2ccc3nccnc3c2)n1` [Example 171, 1-(6-methylpyridin-2-yl)-N-(4-morpholinophenyl)-5-(quinoxalin-6-yl)-1H-pyrazole-3-carboxyamide], for which the IC50 was in the range of 10 to 100 nM. With `Cc1cccc(-n2nc(C(=O)Nc3ccc(O)cc3)cc2-c2ccc3ncnn3c2)n1` [Example 93, 5-([1,2,4]triazolo[1,5-α]pyridin-6-yl)-N-(4-hydroxyphenyl)-1-(6-methylpyridin-2-yl)-1H-pyrazole-3-carboxyamide] the figure was 3.9 nM; with `Cc1cccc(-n2nc(C(=O)Nc3ccc(Cl)cc3)cc2-c2ccc3nccnc3c2)n1` [Example 189, N-(4-chlorophenyl)-1-(6-methylpyridin-2-yl)-5-(quinoxalin-6-yl)-1H-pyrazole-3-carboxyamide], 10 to 100 nM; with `Cc1cccc(-n2nc(C(=O)Nc3ccc(N4CCN(C)CC4)cc3)cc2-c2ccc3nccnc3c2)n1` [Example 172, N-(4-(4-methylpiperazin-1-yl)phenyl)-1-(6-methylpyridin-2-yl)-5-(quinoxalin-6-yl)-1H-pyrazole-3-carboxyamide], 10 to 100 nM.

With `Cc1cccc(-n2nc(C(=O)Nc3cn[nH]c3)cc2-c2ccc(F)c(-c3cnn(CCO)c3)c2)n1` [Example 222, N-(1H-pyrazol-4-yl)-5-(4-fluoro-3-(1-(2-hydroxyethyl)-1H-pyrazol-4-yl)phenyl)-1-(6-methylpyridin-2-yl)-1H-pyrazole-3-carboxyamide], the IC50 is 1 nM. For `Cc1cccc(-n2nc(C(=O)Nc3cnn(S(C)(=O)=O)c3)cc2-c2ccc3ncnn3c2)n1` [Example 162, 5-([1,2,4]triazolo[1,5-α]pyridin-6-yl)-1-(6-methylpyridin-2-yl)-N-(1-(methylsulfonyl)-1H-pyrazol-4-yl)-1H-pyrazole-3-carboxyamide] the value was 2 nM; for `Cc1cccc(-n2nc(C(=O)Nc3ccc(F)cc3)cc2-c2ccc3ncnn3c2)n1` [Example 126, 5-([1,2,4]triazolo[1,5-α]pyridin-6-yl)-N-(4-fluorophenyl)-1-(6-methylpyridin-2-yl)-1H-pyrazole-3-carboxyamide], ~10 nM.

In turn, `Cc1cccc(-n2nc(C(=O)Nc3ccccc3F)cc2-c2ccc3ncnn3c2)n1` [Example 124, 5-([1,2,4]triazolo[1,5-α]pyridin-6-yl)-N-(2-fluorophenyl)-1-(6-methylpyridin-2-yl)-1H-pyrazole-3-carboxyamide] came in with an IC50 of 31 nM.

With `Cc1cccc(-n2nc(C(=O)NCc3cccc(F)c3)cc2-c2ccc3ncsc3c2)n1` [Example 78, 5-(benzo[d]thiazol-6-yl)-N-(3-fluorobenzyl)-1-(6-methylpyridin-2-yl)-1H-pyrazole-3-carboxyamide], the half-inhibitory concentration (IC50) was 3.4 nM. As for `Cc1cccc(-n2nc(C(=O)Nc3ccc(S(=O)(=O)C4CC4)cc3)cc2-c2ccc3ncoc3c2)n1` [Example 220], the IC50 was determined as 3.2 nM.

As to `Cc1cccc(-n2nc(C(=O)Nc3ccc([S+](C)[O-])cc3)cc2-c2ccc3ncnn3c2)n1` (stereo not drawn) [Example 146, 5-([1,2,4]triazolo[1,5-α]pyridin-6-yl)-N-(4-(methylsulfinyl)phenyl)-1-(6-methylpyridin-2-yl)-1H-pyrazole-3-carboxyamide], the half-maximal inhibitory concentration (IC50) was 6 nM.

As for `CNS(=O)(=O)c1ccc(NC(=O)c2cc(-c3ccc4ncsc4c3)n(-c3cccc(C)n3)n2)cc1` [Example 48, 5-(benzo[d]thiazol-6-yl)-1-(6-methylpyridin-2-yl)-N-(4-(N-methylsulfamoyl)phenyl)-1H-pyrazole-3-carboxyamide], the IC50 came out at 4.1 nM. This IC50 and that of the compound before are within 1.5-fold of each other. Consider `Cc1cccc(-n2nc(C(=O)Nc3ccc(N4CCCC4)cc3)cc2-c2ccc3ncnn3c2)n1` [Example 105, 5-([1,2,4]triazolo[1,5-α]pyridin-6-yl)-N-(4-(pyrrolidin-1-yl)phenyl)-1-(6-methylpyridin-2-yl)-1H-pyrazole-3-carboxyamide], for which the IC50 is 7 nM.

The compound `CCCS(=O)(=O)c1ccc(NC(=O)c2cc(-c3ccc4ncnn4c3)n(-c3cccc(C)n3)n2)cc1` [Example 150, 5-([1,2,4]triazolo[1,5-α]pyridin-6-yl)-N-(4-(propylsulfonyl)phenyl)-1-(6-methylpyridin-2-yl)-1H-pyrazole-3-carboxyamide] had an IC50 of 4.8 nM. In the case of `Cc1cccc(-n2nc(C(=O)Nc3ccc(N4CC[C@H](N(C)C)C4)cc3)cc2-c2ccc3ncsc3c2)n1` [Example 16, 5-(benzo[d]thiazol-6-yl)-N-(4-(3-(dimethylamino)pyrrolidin-1-yl)phenyl)-1-(6-methylpyridin-2-yl)-1H-pyrazole-3-carboxyamide], the IC50 stood at 2.3 nM. With `Cc1cccc(-n2nc(C(=O)Nc3ccc(CN(C)C)cc3)cc2-c2ccc3ncnn3c2)n1` [Example 111, 5-([1,2,4]triazolo[1,5-α]pyridin-6-yl)-N-(4-((dimethylamino)methyl)phenyl)-1-(6-methylpyridin-2-yl)-1H-pyrazole-3-carboxyamide], the IC50 was > 100 nM. For `C=Cc1cccc(NC(=O)c2cc(-c3ccc4ncsc4c3)n(-c3cccc(C)n3)n2)c1` [Example 20, 5-(benzo[d]thiazol-6-yl)-1-(6-methylpyridin-2-yl)-N-(3-vinylphenyl)-1H-pyrazole-3-carboxyamide] the value was 10 to 100 nM; for `CCCS(=O)(=O)c1ccc(NC(=O)c2cc(-c3ccc4ncnn4c3)n(-c3cccc(C)n3)n2)cc1` [Example 151, 5-([1,2,4]triazolo[1,5-α]pyridin-6-yl)-N-(4-(propylsulfonyl)phenyl)-1-(6-methylpyridin-2-yl)-1H-pyrazole-3-carboxyamide], 2.7 nM; for `Cc1cccc(-n2nc(C(=O)Nc3ccc(CS(C)(=O)=O)cc3)cc2-c2ccc3ncsc3c2)n1` [Example 59, 5-(benzo[d]thiazol-6-yl)-1-(6-methylpyridin-2-yl)-N-(4-((methylsulfonyl)methyl)phenyl)-1H-pyrazole-3-carboxyamide], 20 nM. For `Cc1cccc(-n2nc(C(=O)Nc3ccc(F)c(CS(N)(=O)=O)c3)cc2-c2ccc3ncsc3c2)n1` [Example 62, 5-(benzo[d]thiazol-6-yl)-N-(4-fluoro-3-(sulfamoylmethyl)phenyl)-1-(6-methylpyridin-2-yl)-1H-pyrazole-3-carboxyamide] the value was 16 nM.

`Cc1cccc(-n2nc(C(=O)Nc3ccc(F)cc3)cc2-c2ccc3ncsc3c2)n1` [Example 29, 5-(benzo[d]thiazol-6-yl)-N-(4-fluorophenyl)-1-(6-methylpyridin-2-yl)-1H-pyrazole-3-carboxyamide] registered an IC50 of 3.9 nM.

`Cc1cccc(-n2nc(C(=O)Nc3ccc(N(C)C)cc3)cc2-c2ccc3nccnc3c2)n1` [Example 170, N-(4-(dimethylamino)phenyl)-1-(6-methylpyridin-2-yl)-5-(quinoxalin-6-yl)-1H-pyrazole-3-carboxyamide]: the IC50 is < 100 nM. For `CC(=O)c1cccc(NC(=O)c2cc(-c3ccc4ncnn4c3)n(-c3cccc(C)n3)n2)c1` [Example 122, 5-([1,2,4]triazolo[1,5-α]pyridin-6-yl)-N-(3-acetylphenyl)-1-(6-methylpyridin-2-yl)-1H-pyrazole-3-carboxyamide] the value was 10 to 100 nM; for `CSc1cccc(NC(=O)c2cc(-c3ccc4ncsc4c3)n(-c3cccc(C)n3)n2)c1` [Example 35, 5-(benzo[d]thiazol-6-yl)-1-(6-methylpyridin-2-yl)-N-(3-(methylthio)phenyl)-1H-pyrazole-3-carboxyamide], 10 to 100 nM; for `COc1ccc(NC(=O)c2cc(-c3ccc4ncnn4c3)n(-c3cccc(C)n3)n2)cn1` [Example 154, 5-([1,2,4]triazolo[1,5-α]pyridin-6-yl)-N-(6-methoxypyridin-3-yl)-1-(6-methylpyridin-2-yl)-1H-pyrazole-3-carboxyamide], ~10 nM.
